Measurements: US9642922B2, “Caspase-triggered nano-aggregation probes and methods of use” (The Board of Trustees of the Leland Stanford Junior …, priority 2013, dated 2017)
Marks after values point to notes of the source that are not given here. Blank lines part the entries; values can stand above or below the compound they belong to.

Legend:
[1] = TEM of nano-aggregates after incubation with caspase-3; assay type: physicochemical; settings: after caspase-3 incubation
Method: FIG. 7C is a digital TEM image of nano-aggregates after incubation C-SNAF (50 μM) with recombinant human caspase-3 (4.9×10^−3 U/mL) overnight at 37° C. in caspase-3 buffer; scale bar, 1 μm.
No nano-aggregation was found in either of the control probe solutions after incubation with caspase-3.

[2] = Stability of PET tracers in mouse serum; assay type: in vitro ADME; settings: 1 h incubation, 37° C.
Method: To the mouse serum (500 μL) 100 μL (approximately 100 μCi/3.7 MBq) of radioactive sample was added and the mixture was incubated at 37° C. At each time point, 100 μL of sample was taken and after mixing with 100 μL of acetonitrile was centrifuged at 9,400×g for 5 min. The resulting supernatants were collected, and an aliquot of each supernatant (100 μL) was diluted with 100 μL of water and analyzed via the same HPLC method used for quality control (fitted with a highly sensitive positron detector for radioactivity). The percent ratio of intact compound to the total radioactivity on the HPLC chromatogram was calculated as %=[(peak area for intact compound)/(total peak area)]×100.

caspase-3 = target: T1, caspase-3 (Homo sapiens, UniProt P42574); experiment: Incubation of PET tracer with recombinant caspase-3, radio-HPLC; assay type: biochemical; settings: within 1 h, in buffer
T1 sequence (P42574 29-175 limits assumed): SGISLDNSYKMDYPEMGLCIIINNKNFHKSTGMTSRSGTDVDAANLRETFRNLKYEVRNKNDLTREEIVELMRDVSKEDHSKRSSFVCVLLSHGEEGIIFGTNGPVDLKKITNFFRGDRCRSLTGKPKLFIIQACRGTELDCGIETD
T1 sequence (P42574 176-277 limits assumed): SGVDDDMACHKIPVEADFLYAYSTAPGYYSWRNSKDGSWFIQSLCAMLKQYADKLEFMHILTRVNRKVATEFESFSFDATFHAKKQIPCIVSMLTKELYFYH
Method: To evaluate the activatable PET tracer 1 for caspase-3 detection, it was first incubated with recombinant caspase-3 in buffer.

apoptotic HeLa cells = experiment: Cell uptake of tracer 1 in HeLa cells; assay type: cell-based, human
Method: HeLa cells (cultured in DMEM with 10% FBS and 1% ampicillin) were grown in a 6 well plate culture dish for 24 h. The wells were then divided into 3 groups. Group 1 wells were cultured normally for 24 h, then the medium was changed and the cells were cultured for another 24 h. Group 2 and 3 wells were cultured with 2 μM doxorubicin (DOX) for 24 h, then the medium was changed and the cells were cultured for another 24 h, group 2 in normal culture medium without doxorubicin and group 3 in normal culture medium without doxorubicin but together with 50 μM Z-VAD-FMK, a caspase-3 inhibitor.
After 48 h, 10 μCi (0.37 MBq) of 1 were added to all three groups and incubated for additional 4 h. Then the medium was removed, the cells washed 3 times with phosphate buffered saline, and 1 mL of Tryp-LETM Express was added and the cells were left for 1-2 min to allow to detach. The cell/Tryp-LE solution was counted in a gamma counter and the radioactivity was normalized to the protein concentration (determined by comparison with BSA standards in each vial.

HeLa tumor xenograft = experiment: PET imaging of HeLa tumor xenograft-bearing nude mice; assay type: in vivo, mouse; settings: for uptake ratio between tumor and muscle (T/M): treated tumors
Method: One group of animals was scanned at baseline (before treatment) and 4 days post treatment with 0.2 mg doxorubicin injected into the tumor. On the day of scanning, the animals were moved from their housing area to the PET scanner around 1 h prior to the experiment. They were constrained shortly in a tail veiner and injected intravenously, with 440±97 μCi (16±3 MBq) [^18F]C-SNAT formulation. They were anesthetized with 2% isoflurane shortly before placement in an R4 microPET scanner (Siemens Medical Solutions, USA). The anesthesia were continued with 2% isoflurane doing 5 min of acquisition. Scans using the control tracer 1-D (173±73 μCi/9±4 Mbq in 200 μL formulation) were carried out in a similar manner using two groups (one baseline and one treated) instead of the same animals at baseline and after treatment. The images were reconstructed using a standard 2D reconstruction without attenuation correction.
The reconstructed images were analyzed by making two volumes of interest (VOI), one on the tumor and one located on the left shoulder corresponding to muscle/bone mixture. The percent of injected dose per gram tissue (% ID/g) was calculated in each VOI and the ratio between tumor and muscle uptake was calculated based on this uptake (uptake in tumor/uptake in muscle region). The effect of treatment was calculated as the difference in uptake of [^18F]C-SNAT at baseline and after treatment.
Evaluation of activatable PET tracer 1 and control tracer 1-D for PET imaging of caspase-3 activity in vivo was performed in HeLa tumor xenograft-bearing nude mice. Tumors were implanted and grown for a minimum of 10 d before receiving intratumoral injection of 0.2 mg DOX (20 μL). 1 or 1-D (5-15 MBq/135-405 μCi) was injected through the tail vein for PET imaging 4 d post treatment. Static PET scans (5 min) were performed 65, 125 and 182 mins post tracer injection.

[3] = Ex vivo biodistribution of [18F]C-SNAT; assay type: in vivo, mouse; settings: for Ratio of % ID/g over muscle ± SEM: 2 h post injection
Method: Mice were administered [^18F]C-SNAT (100-200 μCi/3.7-7.4 MBq in 100-200 μL of 0.9% saline solution) via tail vein injection and then euthanized by bilateral thoracotomy under anesthesia at 2 h after injection of tracer (n=3). All samples (tumor, heart, whole brain, gallbladder, kidney, liver, lung, muscle, bone, spleen, whole blood) were removed quickly following euthanasia and placed in pre-weighed test tubes. Standard solutions of the tracer were prepared by diluting approximately 100 μCi (3.7 MBq) tracer in 100 mL of water, of which 1 mL of aliquots were used for reference counting.
The test tubes containing tissue samples were weighed and the radioactivity was measured by an automated gamma counter (Cobra Model 5002, Packard, USA) along with the standard solutions.

Membrane Potential = settings: cited from earlier work

- average diameter of nano-aggregates (TEM) [1]: 174±44 nm
Compound: CC[N+]1=C(C=CC=CC=C2N(CCCCCC(=O)NCCCCC3NC(=O)C4CSC(=N4)c4ccc5cc(ccc5n4)OCCCNC(=O)C4CSC(=N4)c4nc5ccc(cc5s4)NC3=O)c3ccc4c(S(=O)(=O)O)cc(S(=O)(=O)O)cc4c3C2(C)C)C(C)(C)c2c1ccc1c(S(=O)(=O)[O-])cc(S(=O)(=O)O)cc21 (stereo not shown) [C-SNAF-cycl]

- intact tracer in mouse serum [2]: 60%
- tracer cyclized by recombinant caspase-3 (caspase-3): 90%
- Ratio of % ID/g over muscle ± SEM ([3]; Bone): 2.4 ± 1.5
- Ratio of % ID/g over muscle ± SEM ([3]; Brain): 0.5 ± 0.2
- Ratio of % ID/g over muscle ± SEM ([3]; Heart): 4.5 ± 2.4
- Ratio of % ID/g over muscle ± SEM ([3]; Kidney): 124.2 ± 46.6
- Ratio of % ID/g over muscle ± SEM ([3]; Liver): 22.9 ± 9.7
- Ratio of % ID/g over muscle ± SEM ([3]; Lung): 4.1 ± 1.8
- Ratio of % ID/g over muscle ± SEM ([3]; Muscle): 1.0 ± 0.5
- Ratio of % ID/g over muscle ± SEM ([3]; Plasma): 4.0 ± 1.8
- Ratio of % ID/g over muscle ± SEM ([3]; Spleen): 1.7 ± 0.7
- Ratio of % ID/g over muscle ± SEM ([3]; Tumor): 5.6 ± 2.3
- Ratio of % ID/g over muscle ± SEM ([3]; Whole Blood): 5.1 ± 2.4
- crossing of the blood-brain barrier ([3]; low uptake in brain tissue, 120 minutes post injection): could not cross the blood-brain barrier
Compound: CCSSCC(NC(=O)[C@H](CC(=O)O)NC(=O)[C@@H](NC(=O)[C@H](CCC(=O)O)NC(=O)[C@H](CC(=O)O)NC(C)=O)C(C)C)C(=O)NC(Cc1cn(CCOCC[18F])nn1)C(=O)Nc1ccc2nc(C3=N[C@@H](C(=O)NCCCOc4ccc5nc(C#N)ccc5c4)CS3)sc2c1 (stereo partly shown) [[^18F]C-SNAT]
- retained 18F activity in Dox-treated cells with caspase-3 inhibitor (apoptotic HeLa cells; Dox 2 μM plus Z-VAD-fmk): 1.3 fold
- retained 18F activity in Dox-treated versus non-treated cells (apoptotic HeLa cells; Dox 2 μM, 4 h tracer incubation): 2.2 fold
- uptake difference between baseline and treated (HeLa tumor xenograft; 65 min): 0.36±0.15 % ID/g
- uptake difference between baseline and treated (HeLa tumor xenograft; 182 min): 0.63±0.11 % ID/g
- uptake in tumor (HeLa tumor xenograft; DOX treated, 65 min): 1.17±0.17 % ID/g
- uptake in tumor (HeLa tumor xenograft; DOX treated, 182 min): 1.29±0.07 % ID/g
- uptake in tumor (HeLa tumor xenograft; baseline, 65 min): 0.81±0.28 % ID/g
- uptake in tumor (HeLa tumor xenograft; baseline, 182 min): 0.67±0.24 % ID/g
- Target/Background (HeLa tumor xenograft; maximum value at the apoptotic tissue): 7.0
- time course of uptake in apoptotic tumors (HeLa tumor xenograft; mouse, in vivo): trend of increasing uptake over times
- % ID/g at target site (HeLa tumor xenograft; mouse, tumor treatment, PET imaging): 1.3 ± 0.1 % ID/g
- Treated/Untreated (HeLa tumor xenograft; target uptake ratio between pre and post treatment in same animal): 1.9^b
- uptake ratio between tumor and muscle (T/M) (HeLa tumor xenograft; 65 min): 3.30 fold
- uptake ratio between tumor and muscle (T/M) (HeLa tumor xenograft; 182 min): 7.00 fold

Compound: CC(CCCCC[18F])(C(=O)O)C(=O)O [[^18F]ML-10]
- % ID/g at target site (Membrane Potential; PET imaging, cerebral stroke): 0.3 ± 0.1 % ID/g
- Treated/Untreated (Membrane Potential; stroke and non-stroke region in same animal): 2.3^f
